Here are results for 16 compounds from US9695154B2, “Heteroaryl inhibitors of sumo activating enzyme” (MILLENNIUM PHARMACEUTICALS, INC., priority 2013, dated 2017).

Each structure is given as a SMILES string. pIC50: −log10 of the molar value.

The target of this assay is T1, recombinant human SAE enzyme (Homo sapiens, UniProt Q9UBT2).
T1 sequence (Q9UBT2 1-640): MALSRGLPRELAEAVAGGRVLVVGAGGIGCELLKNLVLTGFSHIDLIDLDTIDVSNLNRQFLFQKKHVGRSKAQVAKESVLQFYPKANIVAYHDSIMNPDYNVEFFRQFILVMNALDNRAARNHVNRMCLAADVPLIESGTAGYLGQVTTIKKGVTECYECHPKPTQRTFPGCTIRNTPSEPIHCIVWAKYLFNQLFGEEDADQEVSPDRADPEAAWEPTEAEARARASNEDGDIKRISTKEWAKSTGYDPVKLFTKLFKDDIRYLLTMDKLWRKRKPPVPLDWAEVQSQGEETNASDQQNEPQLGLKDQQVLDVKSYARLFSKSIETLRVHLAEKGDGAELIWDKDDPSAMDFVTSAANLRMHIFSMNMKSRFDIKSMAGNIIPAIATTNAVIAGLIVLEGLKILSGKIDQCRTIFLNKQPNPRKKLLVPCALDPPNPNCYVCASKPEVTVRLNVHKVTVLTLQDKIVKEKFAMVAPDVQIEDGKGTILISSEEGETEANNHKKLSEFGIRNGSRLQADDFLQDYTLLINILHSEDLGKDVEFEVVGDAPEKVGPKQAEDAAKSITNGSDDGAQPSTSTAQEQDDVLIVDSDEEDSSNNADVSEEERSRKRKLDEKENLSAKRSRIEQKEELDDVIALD
T1 sequence (Q9UBE0 1-346 partner): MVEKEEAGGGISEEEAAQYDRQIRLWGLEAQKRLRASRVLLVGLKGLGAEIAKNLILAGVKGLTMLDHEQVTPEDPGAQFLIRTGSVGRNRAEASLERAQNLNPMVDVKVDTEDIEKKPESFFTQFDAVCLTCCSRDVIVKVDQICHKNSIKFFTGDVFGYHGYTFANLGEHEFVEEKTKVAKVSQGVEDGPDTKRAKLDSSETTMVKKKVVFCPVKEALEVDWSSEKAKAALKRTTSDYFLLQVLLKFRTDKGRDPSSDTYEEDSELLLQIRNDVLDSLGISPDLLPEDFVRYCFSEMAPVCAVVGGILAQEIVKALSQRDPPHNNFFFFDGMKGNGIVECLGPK
Briefly: SAE HTRF Enzyme Assay. It counts as biochemical. The following applies: for pIC50: class symbols A-C; for inhibition at 0.111 µM: compound concentration 0.111 μM, read-out: Percent Inhibition. The method, boiled down: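 Measured as FRET after a 2 h antibody step: SAE (0.11 nM) thioester transfer of Sumo-Flag to Ubc9-GST, 0.5 μM ATP, 24° C for 105 min, quenched with 20 mM EDTA. Output is IC50 or percent inhibition at a single concentration.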

In general, pIC50 refers to the IC50 on a negative log10 scale, so that one unit is a factor of ten. Usually inhibition stands for the change of the read-out against control, counted positive when it falls. In the case of `NS(=O)(=O)OC[C@H]1C[C@@H](Nc2ncncc2C(=O)c2ccn(Cc3cccnc3)n2)[C@H](O)[C@@H]1O` [Compound I-247, {(1R,2R,3S,4R)-2,3-dihydroxy-4-[(5-{[1-(pyridin-3-ylmethyl)-1H-pyrazol-3-yl]carbonyl}pyrimidin-4-yl)amino]cyclopentyl}methyl sulfamate], the pIC50 was more than 8.00 and the inhibition at 0.111 µM came out at 90%.

Consider `Cc1cccc(Cn2nc(C(=O)c3cncnc3N[C@@H]3C[C@H](COS(N)(=O)=O)[C@@H](O)C3)cc2C)c1` [Compound I-248, {(1R,2S,4R)-2-hydroxy-4-[(5-{[5-methyl-1-(3-methylbenzyl)-1H-pyrazol-3-yl]carbonyl}pyrimidin-4-yl)amino]cyclopentyl}methyl sulfamate], for which the pIC50 was more than 8.00 and the inhibition at 0.111 µM amounted to 99%.

As for `N#Cc1ccccc1Cn1ccc(C(=O)c2cncnc2N[C@@H]2C[C@H](COS(N)(=O)=O)[C@@H](O)[C@H]2O)n1` [Compound I-249, {(1R,2R,3S,4R)-4-[(5-{[1-(2-cyanobenzyl)-1H-pyrazol-3-yl]carbonyl}pyrimidin-4-yl)amino]-2,3-dihydroxycyclopentyl}methyl sulfamate], the pIC50 was more than 8.00 and the inhibition at 0.111 µM amounted to 97%.

As for `NS(=O)(=O)OC[C@H]1C[C@@H](Nc2ncncc2C(=O)c2ccn(Cc3cccc(N4CCOCC4)c3)n2)C[C@@H]1O` [Compound I-251, [(1R,2S,4R)-2-hydroxy-4-{[5-({1-[3-(morpholin-4-yl)benzyl]-1H-pyrazol-3-yl}carbonyl)pyrimidin-4-yl]amino}cyclopentyl]methyl sulfamate], the pIC50 is 7.00 to 8.00 and the inhibition at 0.111 µM amounted to 71%.

`NS(=O)(=O)OC[C@H]1C[C@@H](Nc2ncncc2C(=O)c2ccn(CC3=CCCCC3)n2)C[C@@H]1O` [Compound I-252, {(1R,2S,4R)-4-[(5-{[1-(cyclohex-1-en-1-ylmethyl)-1H-pyrazol-3-yl]carbonyl}pyrimidin-4-yl)amino]-2-hydroxycyclopentyl}methyl sulfamate]: the pIC50 was more than 8.00 and the inhibition at 0.111 µM turned out to be 97%.

As for `N#Cc1ccccc1Cn1ccc(C(=O)c2cncnc2N[C@@H]2C[C@H](COS(N)(=O)=O)[C@@H](O)C2)n1` [Compound I-253, {(1R,2S,4R)-4-[(5-{[1-(2-cyanobenzyl)-1H-pyrazol-3-yl]carbonyl)pyrimidin-4-yl)amino]-2-hydroxycyclopentyl}methyl sulfamate], the pIC50 is 7.00 to 8.00 and the inhibition at 0.111 µM was found to be 91%.

For `NS(=O)(=O)OC[C@H]1C[C@@H](Nc2ncncc2C(=O)c2cc(Cl)n(Cc3ccc(Cl)o3)c2)[C@@H](F)[C@@H]1O` [Compound I-254, [(1R,2R,3R,4R)-4-{[5-({5-chloro-1-[(5-chloro-2-furyl)methyl]-1H-pyrrol-3-yl}carbonyl)pyrimidin-4-yl]amino}-3-fluoro-2-hydroxycyclopentyl]methyl sulfamate], the pIC50 was more than 8.00 and the inhibition at 0.111 µM is 99%.

`NS(=O)(=O)OC[C@H]1C[C@@H](Nc2ncncc2C(=O)c2ccn(S(=O)(=O)c3cccc(Br)c3)c2)C[C@@H]1O` [Compound I-255, [(1R,2S,4R)-4-{[5-({1-[(3-bromophenyl)sulfonyl]-1H-pyrrol-3-yl}carbonyl)pyrimidin-4-yl]amino}-2-hydroxycyclopentyl]methyl sulfamate]: the pIC50 is more than 8.00 and the inhibition at 0.111 µM was determined as 97%.

In the case of `NS(=O)(=O)OC[C@H]1C[C@@H](Nc2ncncc2C(=O)c2ccn(Cc3cccc(OC(F)F)c3)n2)[C@H](O)[C@@H]1O` [Compound I-256, [(1R,2R,3S,4R)-4-{[5-({1-[3-(difluoromethoxy)benzyl]-1H-pyrazol-3-yl}carbonyl)pyrimidin-4-yl]amino}-2,3-dihydroxycyclopentyl]methyl sulfamate], the pIC50 was more than 8.00 and the inhibition at 0.111 µM was determined as 99%.

On to `NS(=O)(=O)OC[C@H]1C[C@@H](Nc2ncncc2C(=O)c2ccn(Cc3ccc(C(F)(F)F)s3)c2)[C@@H](F)[C@@H]1O` [Compound I-257, [(1R,2R,3R,4R)-3-fluoro-2-hydroxy-4-({5-[(1-{[5-(trifluoromethyl)-2-thienyl]methyl}-1H-pyrrol-3-yl)carbonyl]pyrimidin-4-yl}amino)cyclopentyl]methyl sulfamate], for which the pIC50 is more than 8.00 and the inhibition at 0.111 µM was found to be 98%.

With `NS(=O)(=O)OC[C@H]1C[C@@H](Nc2ncncc2C(=O)c2ccn(Cc3cc(F)cc(C(F)(F)F)c3)n2)[C@H](O)[C@@H]1O` [Compound I-258, [(1R,2R,3S,4R)-4-{[5-({1-[3-fluoro-5-(trifluoromethyl)benzyl]-1H-pyrazol-3-yl}carbonyl)pyrimidin-4-yl]amino}-2,3-dihydroxycyclopentyl]methyl sulfamate], the pIC50 is more than 8.00 and the inhibition at 0.111 µM worked out at 97%.

As to `NS(=O)(=O)OC[C@H]1C[C@@H](Nc2ncncc2C(=O)c2ccn(Cc3ccc(SC(F)(F)F)cc3)n2)[C@H](O)[C@@H]1O` [Compound I-259, [(1R,2R,3S,4R)-2,3-dihydroxy-4-({5-[(1-{4-[(trifluoromethyl)sulfanyl]benzyl}-1H-pyrazol-3-yl)carbonyl]pyrimidin-4-yl}amino)cyclopentyl]methyl sulfamate], the pIC50 was more than 8.00 and the inhibition at 0.111 µM was determined as 95%.

As to `NS(=O)(=O)OC[C@H]1C[C@@H](Nc2ncncc2C(=O)c2ccn(Cc3cc(F)cc(F)c3)n2)C[C@@H]1O` [Compound I-260, {(1R,2S,4R)-4-[(5-{[1-(3,5-difluorobenzyl)-1H-pyrazol-3-yl]carbonyl}pyrimidin-4-yl)amino]-2-hydroxycyclopentyl}methyl sulfamate], the pIC50 was more than 8.00 and the inhibition at 0.111 µM is 91%.

`NS(=O)(=O)OC[C@H]1C[C@@H](Nc2ncncc2C(=O)c2ccn(Cc3cc(C(F)(F)F)ccc3C(F)(F)F)n2)C[C@@H]1O` [Compound I-261, [(1R,2S,4R)-4-{(5-({1-[2,5-bis(trifluoromethyl)benzyl]-1H-pyrazol-3-yl}carbonyl)pyrimidin-4-yl]amino}-2-hydroxycyclopentyl]methyl sulfamate]: the pIC50 was more than 8.00 and the inhibition at 0.111 µM stood at 97%.

Regarding `NS(=O)(=O)OC[C@H]1C[C@@H](Nc2ccncc2C(=O)c2ccn(Cc3cccc(C(F)(F)F)c3)n2)C[C@@H]1O` [Compound I-262, [(1R,2S,4R)-2-hydroxy-4-{[3-({1-[3-(trifluoromethyl)benzyl]-1H-pyrazol-3-yl}carbonyl)pyridin-4-yl]amino}cyclopentyl]methyl sulfamate], the pIC50 was more than 8.00 and the inhibition at 0.111 µM was 96%.

Turning to `NS(=O)(=O)OC[C@H]1C[C@@H](Nc2ccncc2C(=O)c2ccn(Cc3ccc(F)c(C(F)(F)F)c3)n2)C[C@@H]1O` [Compound I-263, [(1R,2S,4R)-4-{[3-({1-[4-fluoro-3-(trifluoromethyl)benzyl]-1H-pyrazol-3-yl}carbonyl)pyridin-4-yl]amino}-2-hydroxycyclopentyl]methyl sulfamate], the pIC50 is more than 8.00 and the inhibition at 0.111 µM is 91%.
